{"source": "patent US20240424148A1", "about": "“IN-VIVO PROXIMITY-BASED LABELING SYSTEMS AND APPLICATIONS THEREOF” (THE TRUSTEES OF PRINCETON UNIVERSITY, priority 2021, published 2024)", "experiment": "Redox potentials (electrochemistry)", "type": "physicochemical", "from_the_text": "This reduced species is poised to undergo single electron transfer (SET) to the aryl azide, 1 (Ep/2=−0.61 V vs Ag/AgCl), thereby regenerating the catalyst (3) (FIG. 15).\nFurthermore, electrochemical reduction of the Sn-chlorin e6 catalyst generated a species with significant spectral overlap with the transient-absorption signal of the photoexcited catalyst in the presence of NADH, supporting the generation of the reduced ground state catalyst.", "data": [{"smiles": "[N-]=[N+]=Nc1ccc(C(=O)O)cc1", "note": "[compound 1, 4-azidobenzoic acid]", "values": [{"measurement": "Ep/2", "value": "−0.61", "unit": "V vs Ag/AgCl"}]}]}
